Tested on: yeast genes (expressed mRNA)
Assay: DNA chip measurement of expressed mRNA of yeast genes after culture with a toxic chemical substance
Type: cell-based, Saccharomyces cerevisiae S288C
Outline: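 Expression is given as treated/untreated fluorescence ratio on a whole-genome yeast DNA chip, a ratio of two or more being significant. Log-phase S288C cultures in YPD at 25 °C received the chemical for 2 h at a dose that slows growth without killing. mRNA was reverse-transcribed with Cy3- or Cy5-dUTP.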

C=CC=O [(14), Acrolein]
The level of expressed mRNA in the presence of chemical substance/The level of expressed mRNA in the absence of chemical substance (yeast gene YAL053W, cultured two hours with substance): 0.7 | The level of expressed mRNA in the presence of chemical substance/The level of expressed mRNA in the absence of chemical substance (yeast gene YAR028W, cultured two hours with substance): 1.2 | The level of expressed mRNA in the presence of chemical substance/The level of expressed mRNA in the absence of chemical substance (yeast gene YBL048W, cultured two hours with substance): 2.0 | The level of expressed mRNA in the presence of chemical substance/The level of expressed mRNA in the absence of chemical substance (yeast gene YBL049W, cultured two hours with substance): 1.5 | The level of expressed mRNA in the presence of chemical substance/The level of expressed mRNA in the absence of chemical substance (yeast gene YBL064C (detoxification protein gene)): 5.0 | The level of expressed mRNA in the presence of chemical substance/The level of expressed mRNA in the absence of chemical substance (yeast gene YBL107C, cultured two hours with substance): 2.5 | The level of expressed mRNA in the presence of chemical substance/The level of expressed mRNA in the absence of chemical substance (yeast gene YBR062C, cultured two hours with substance): 2.6 | The level of expressed mRNA in the presence of chemical substance/The level of expressed mRNA in the absence of chemical substance (yeast gene YBR116C, cultured two hours with substance): 2.7 | The level of expressed mRNA in the presence of chemical substance/The level of expressed mRNA in the absence of chemical substance (yeast gene YCR013C, cultured two hours with substance): 1.5 | The level of expressed mRNA in the presence of chemical substance/The level of expressed mRNA in the absence of chemical substance (yeast gene YCR102C, cultured two hours with substance): 4.1 | The level of expressed mRNA in the presence of chemical substance/The level of expressed mRNA in the absence of chemical substance (yeast gene YDL021W, cultured for two hours with substance): 3.7 | The level of expressed mRNA in the presence of chemical substance/The level of expressed mRNA in the absence of chemical substance (yeast gene YDL059C, DNA repair protein genes, cultured two hours with substance): 4.7 | The level of expressed mRNA in the presence of chemical substance/The level of expressed mRNA in the absence of chemical substance (yeast gene YDL072C, cultured two hours with substance): 1.8 | The level of expressed mRNA in the presence of chemical substance/The level of expressed mRNA in the absence of chemical substance (yeast gene YDL204W, cultured two hours with substance): 2.4 | The level of expressed mRNA in the presence of chemical substance/The level of expressed mRNA in the absence of chemical substance (yeast gene YDL218W, cultured two hours with substance): 4.8 | The level of expressed mRNA in the presence of chemical substance/The level of expressed mRNA in the absence of chemical substance (yeast gene YDL222C, cultured two hours with substance): 1.3 | The level of expressed mRNA in the presence of chemical substance/The level of expressed mRNA in the absence of chemical substance (yeast gene YDR031W, cultured two hours with substance): 2.5 | The level of expressed mRNA in the presence of chemical substance/The level of expressed mRNA in the absence of chemical substance (yeast gene YDR330W, cultured two hours with substance): 1.1 | The level of expressed mRNA in the presence of chemical substance/The level of expressed mRNA in the absence of chemical substance (yeast gene YDR391C, cultured two hours with substance): 2.3 | The level of expressed mRNA in the presence of chemical substance/The level of expressed mRNA in the absence of chemical substance (yeast gene YDR411C, cultured two hours with substance): 0.8 | The level of expressed mRNA in the presence of chemical substance/The level of expressed mRNA in the absence of chemical substance (yeast gene YDR486C, cultured two hours with substance): 2.4 | The level of expressed mRNA in the presence of chemical substance/The level of expressed mRNA in the absence of chemical substance (yeast gene YDR511W, cultured two hours with substance): 2.2 | The level of expressed mRNA in the presence of chemical substance/The level of expressed mRNA in the absence of chemical substance (yeast gene YDR545W, cultured two hours with substance): 0.7 | The level of expressed mRNA in the presence of chemical substance/The level of expressed mRNA in the absence of chemical substance (yeast gene YEL001C, cultured two hours with substance): 1.3 | The level of expressed mRNA in the presence of chemical substance/The level of expressed mRNA in the absence of chemical substance (yeast gene YEL057C, cultured two hours with the chemical substance): 1.5 | The level of expressed mRNA in the presence of chemical substance/The level of expressed mRNA in the absence of chemical substance (yeast gene YER004W, cultured two hours with substance): 1.8 | The level of expressed mRNA in the presence of chemical substance/The level of expressed mRNA in the absence of chemical substance (yeast gene YER012W): 4.6 | The level of expressed mRNA in the presence of chemical substance/The level of expressed mRNA in the absence of chemical substance (yeast gene YER035W, cultured two hours with substance): 1.0 | The level of expressed mRNA in the presence of chemical substance/The level of expressed mRNA in the absence of chemical substance (yeast gene YER038C, cultured two hours with substance): 1.3 | The level of expressed mRNA in the presence of chemical substance/The level of expressed mRNA in the absence of chemical substance (yeast gene YER079W, cultured two hours with substance): 1.6 | The level of expressed mRNA in the presence of chemical substance/The level of expressed mRNA in the absence of chemical substance (yeast gene YER106W, cultured two hours with substance): 1.5 | The level of expressed mRNA in the presence of chemical substance/The level of expressed mRNA in the absence of chemical substance (yeast gene YER158C, cultured two hours with substance): 0.9 | The level of expressed mRNA in the presence of chemical substance/The level of expressed mRNA in the absence of chemical substance (yeast gene YER163C, cultured two hours with substance): 1.9 | The level of expressed mRNA in the presence of chemical substance/The level of expressed mRNA in the absence of chemical substance (yeast gene YER175C, cultured two hours with substance): 1.1 | The level of expressed mRNA in the presence of chemical substance/The level of expressed mRNA in the absence of chemical substance (yeast gene YFL006W, cultured two hours with substance): 1.7 | The level of expressed mRNA in the presence of chemical substance/The level of expressed mRNA in the absence of chemical substance (yeast gene YFL010C, cultured two hours with substance): 1.4 | The level of expressed mRNA in the presence of chemical substance/The level of expressed mRNA in the absence of chemical substance (yeast gene YFL014W, DNA repair protein genes, cultured two hours with substance): 7.3 | The level of expressed mRNA in the presence of chemical substance/The level of expressed mRNA in the absence of chemical substance (yeast gene YFL024C, cultured two hours with substance): 3.3 | The level of expressed mRNA in the presence of chemical substance/The level of expressed mRNA in the absence of chemical substance (yeast gene YFL032W, cultured two hours with substance): 0.6 | The level of expressed mRNA in the presence of chemical substance/The level of expressed mRNA in the absence of chemical substance (yeast gene YFR003C, cultured two hours with substance): 2.1 | The level of expressed mRNA in the presence of chemical substance/The level of expressed mRNA in the absence of chemical substance (yeast gene YGL037C, cultured two hours with substance): 1.0 | The level of expressed mRNA in the presence of chemical substance/The level of expressed mRNA in the absence of chemical substance (yeast gene YGL047W, cultured two hours with substance): 2.3

Source: patent US20100041089A1, “IMPROVED METHOD FOR DETECTING CHEMICAL […]” (priority 2006, published 2010)
